Experimental data taken from patent US9085568B2, “Mineralocorticoid receptor antagonists” (Merck Sharp & Dohme Corp., priority 2011, dated 2015).

The molecules below were run against T1, full-length human Mineralocorticoid Receptor (MR) (Homo sapiens, UniProt P08235) (assay: human MR NH Pro assay (PathHunter protein:protein interaction, MR antagonism)). Settings: PathHunter CHO-K1 cells overexpressing human MR; aldosterone (0.3 nM), 6 hours at 37° C.; antagonism of MR binding to coactivator peptide; read-out: IC50 Rating.
T1 construct: host or cells: PathHunter CHO-K1 cells
T1 sequence (P08235 1-984): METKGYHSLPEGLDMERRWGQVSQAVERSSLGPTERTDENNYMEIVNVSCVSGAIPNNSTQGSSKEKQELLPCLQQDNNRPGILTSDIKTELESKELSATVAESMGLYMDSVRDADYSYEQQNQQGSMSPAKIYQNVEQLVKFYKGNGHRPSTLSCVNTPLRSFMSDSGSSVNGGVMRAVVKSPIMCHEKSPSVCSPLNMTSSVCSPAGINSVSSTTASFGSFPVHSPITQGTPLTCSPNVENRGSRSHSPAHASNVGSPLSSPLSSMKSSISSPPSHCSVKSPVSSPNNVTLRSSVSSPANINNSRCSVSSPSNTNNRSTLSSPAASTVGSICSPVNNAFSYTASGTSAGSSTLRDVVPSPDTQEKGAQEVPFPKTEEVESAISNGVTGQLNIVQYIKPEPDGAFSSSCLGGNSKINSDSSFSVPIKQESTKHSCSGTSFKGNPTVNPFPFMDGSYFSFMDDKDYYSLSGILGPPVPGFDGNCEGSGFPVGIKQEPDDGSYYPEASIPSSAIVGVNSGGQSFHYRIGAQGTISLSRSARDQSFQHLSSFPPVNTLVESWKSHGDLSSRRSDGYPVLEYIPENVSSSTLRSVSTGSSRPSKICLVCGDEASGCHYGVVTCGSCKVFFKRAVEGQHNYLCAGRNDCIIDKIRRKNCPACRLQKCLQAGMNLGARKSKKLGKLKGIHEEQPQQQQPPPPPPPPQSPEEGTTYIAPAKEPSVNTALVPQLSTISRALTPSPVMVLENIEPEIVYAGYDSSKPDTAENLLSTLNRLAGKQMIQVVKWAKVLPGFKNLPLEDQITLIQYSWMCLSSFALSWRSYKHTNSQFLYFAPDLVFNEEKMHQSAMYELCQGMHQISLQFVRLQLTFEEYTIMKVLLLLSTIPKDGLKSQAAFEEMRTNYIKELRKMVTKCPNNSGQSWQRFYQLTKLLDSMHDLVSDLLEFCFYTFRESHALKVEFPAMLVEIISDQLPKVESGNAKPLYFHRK
Assay type: cell-based
Procedure: The activity of the compounds of the present invention regarding mineralocorticoid receptor antagonism was evaluated using the following assay.
The human MR NH Pro assay is a commercially available PathHunter™ Protein: Protein interaction assay (DiscoveRx; http://www.discoverx.com/nhrs/prod-nhrs.php) that measures the ability of compounds to antagonize full-length human Mineralocorticoid Receptor (MR) binding to a coactivator peptide.
3× PathHunter Detection Reagents (Cat #93-0001) (need ˜6 ml/plate). […] Control Agonist: Aldosterone: Sigma cat #A9477 • Prepare stock solution—10 μM in DMSO kept at −20° C. • for assay, dilute in assay media to 1.8 or 6 nM (6× of final concentration=about 0.3 nM to about 1.0 nM) • 5. Cell line: PathHunter CHO-K1 MR cells Cat #93-0456C2, Lot No: 09B0913, from operation liquid nitrogen stock. • 6. […] Methods: • Assay Set Up and Calculations: • 1. Cells were grown in F12+FBS+Hygromycin+pen/strep+Genetin • 2. Cells were collected with 0.05% trypsin and the cell suspension was spun and resuspended in a volume of F12+1.5% CD-FBS and counted. • 3. The cells were resuspended to 4×10^5 cells/mL. • 4. Cells were (25 μL/well) added to the wells of a 384 well plate. • 5. The plate was then incubated at 37° C. over night in a humidified incubator with 5% CO2. • 6. Test compounds were titrated starting at 4.4 mM, 10-point titration in 1:3 dilution. • 7.
5 μL of assay media was added to all wells in column 23 and 24. • 5. Plates were incubated 6 hrs at 37° C., 5% CO2. • 6. 15 μL 3× DiscoveRx detection reagent was added to each well. • 7. Plates were incubated for 1 hour at room temperature (plates stored in the dark). • 8.

| Compound | IC50 |
| --- | --- |
| COc1cc(OC)cc(-c2nnc([C@@]3(Cc4ccccc4)NC(=O)N([C@H](C)c4ccccc4)C3=O)o2)c1 (single isomer, unassigned) [Compound 22] | 500 to 2000 nM |
| COc1cc(OC)cc(-c2n[nH]c(C3(Cc4ccccc4)OC(=O)N([C@H](C)c4ccc(F)cc4)C3=O)n2)c1 (stereo partly drawn) [Compound 1, 5-Benzyl-5-[5-(3,5-dimethoxyphenyl)-4H-1,2,4-triazol-3-yl]-3-[(1R)-1-(4-fluorophenyl)ethyl]-1,3-oxazolidine-2,4-dione] | 500 to 2000 nM |
| COc1cc(Cc2nnc([C@@]3(Cc4ccccc4)OC(=O)N([C@H](C)c4ccccc4)C3=O)o2)cc(OC)c1 [Compound 2, (5R)-5-Benzyl-5-[5-(3,5-dimethoxybenzyl)-1,3,4-oxadiazol-2-yl]-3-[(1R)-1-phenylethyl]-1,3-oxazolidine-2,4-dione] | < 100 nM |
| C[C@H](c1ccccc1)N1C(=O)O[C@](Cc2ccccc2)(c2nnc(C3(c4cc(F)cc(F)c4)CC3)o2)C1=O [Compound 9, (5R)-5-Benzyl-5-{5-[1-(3,5-difluorophenyl)cyclopropyl]-1,3,4-oxadiazol-2-yl}-3-[(1R)-1-phenylethyl]-1,3-oxazolidine-2,4-dione] | 100 to 500 nM |
| COc1cc(N)cc(-c2nnc([C@@]3(Cc4ccccc4)OC(=O)N([C@H](C)c4ccccc4)C3=O)o2)c1 [Compound 10, (5R)-5-[5-(3-Amino-5-methoxyphenyl)-1,3,4-oxadiazol-2-yl]-5-benzyl-3-[(1R)-1-phenylethyl]-1,3-oxazolidine-2,4-dione] | 100 to 500 nM |
| C[C@H](c1ccccc1)N1C(=O)O[C@](Cc2ccccc2)(c2nnc(CC(F)(F)F)o2)C1=O [Compound 11, (5R)-5-Benzyl-3-[(1R)-1-phenylethyl]-5-[5-(2,2,2-trifluoroethyl)-1,3,4-oxadiazol-2-yl]-1,3-oxazolidine-2,4-dione] | 500 to 2000 nM |
| C[C@H](c1ccccc1)N1C(=O)O[C@](Cc2ccccc2)(c2nnc(C3(C(F)(F)F)CC3)o2)C1=O [Compound 12, (5R)-5-Benzyl-3-[(1R)-1-phenylethyl]-5-{5-[1-(trifluoromethyl)cyclopropyl]-1,3,4-oxadiazol-2-yl}-1,3-oxazolidine-2,4-dione] | 500 to 2000 nM |
| C[C@H](c1ccccc1)N1C(=O)O[C@](Cc2ccccc2)(c2nnc(C3(c4ccncc4)CC3)o2)C1=O [Compound 14, (5R)-5-Benzyl-3-[(1R)-1-phenylethyl]-5-[5-(1-pyridin-4-ylcyclopropyl)-1,3,4-oxadiazol-2-yl]-1,3-oxazolidine-2,4-dione] | 100 to 500 nM |
